Source: US20170204092A1, “4,5-DIHYDROISOXAZOLE DERIVATIVES AS NAMPT INHIBITORS” (AURIGENE DISCOVERY TECHNOLOGIES LIMITED, priority 2014, published 2017)
Read-outs that look alike come from different tables or passages of the source.

System: MiaPaCa-2 cells
Experiment: Cytotoxicity assay in MiaPaCa-2 (XTT, 72 h)
Assay type: cell-based
Conditions: for Cell cytotoxicity assay (% Inhibition at 1 μM) / Cell cytotoxicity assay (% Inhibition at 10 μM) / inhibition at 1 µM / inhibition at 10 µM: DMSO control = 0% inhibition; for IC50: XTT, read-out: Cell cytotoxicity assay IC50 in range; for inhibition at 1 µM: read-out: Cell cytotoxicity assay (% Inhibition at 1 μM); for inhibition at 10 µM: read-out: Cell cytotoxicity assay (% Inhibition at 10 μM)
Experimental: MiaPaCa-2 Cells (ATCC) were seeded in 96 well plates (Costar clear flat bottom) at a density of 3000 cells/well and allowed to settle overnight. Test compounds were dissolved in dimethyl sulphoxide (DMSO-Sigma Aldrich, D2650) and incubated with MiaPaCa-2 cells for 72 h. Post 72 h, 50 μl XTT (1 mg/mL; Invitrogen, X 6493) and PMS ([…]; Sigma Aldrich, P9625) reagents were added to the cells in 100 μl of cDMEM (Sigma Aldrich-D5648)+10% FBS (Hyclone-5430088-03)+1×Pen Strep (Sigma Aldrich-P0781). After 1 hour incubation with XTT and PMS absorbance was monitored with Spectramax M3 (Molecular Device). Percentage inhibition of proliferation at 10 μM and 1 μM concentrations was calculated by considering DMSO control as 0% inhibition. IC50 values were plotted using Graph pad prism software (Graph pad Inc, La Jola, Calif., USA).

Structure (SMILES): O=C(NCC1=NOC(COc2cc(Cl)cnc2-c2ccc(F)nc2)C1)c1ccc2nccn2c1 (single isomer, unassigned) [Example 14b, N-((5-(((5-chloro-6′-fluoro-[2,3′-bipyridin]-3-yl)oxy)methyl)-4,5-dihydroisoxazol-3-yl)methyl)imidazo[1,2-a]pyridine-6-carboxamide]
- Cell cytotoxicity assay (% Inhibition at 1 μM): 100%
- Cell cytotoxicity assay (% Inhibition at 10 μM): 98%
- IC50: < 50 nM

Structure (SMILES): N#Cc1ccc(OCC2CC(CNC(=O)c3ccc4nccn4c3)=NO2)c(-c2ccc(F)nc2)n1 (single isomer, unassigned) [Example 10a, N-((5-(((6-cyano-6′-fluoro-[2,3′-bipyridin]-3-yl)oxy)methyl)-4,5-dihydroisoxazol-3-yl)methyl)imidazo[1,2-a]pyridine-6-carboxamide]
- inhibition at 1 µM (Homo sapiens, MIA PaCa-2, 72 h): 100%
- inhibition at 10 µM (Homo sapiens, MIA PaCa-2, 72 h): 100%
- IC50 (Homo sapiens, MIA PaCa-2, 72 h): < 50 nM

Structure (SMILES): O=C(NCC1=NOC(COc2ccncc2-c2ccc(F)nc2)C1)c1ccc2nccn2c1 (racemic) [Example 3, N-((5-(((6′-fluoro-[3,3′-bipyridin]-4-yl)oxy)methyl)-4,5-dihydroisoxazol-3-yl)methyl)-imidazo[1,2-a]pyridine-6-carboxamide]
- inhibition at 1 µM (Homo sapiens, MIA PaCa-2, 72 h): 5%
- inhibition at 10 µM (Homo sapiens, MIA PaCa-2, 72 h): 80%
- IC50 (Homo sapiens, MIA PaCa-2, 72 h): > 250 nM

Structure (SMILES): O=C(NCC1=NOC(COc2cccnc2-c2cccnc2)C1)c1ccc2nccn2c1 (single isomer, unassigned) [Example 7b, N-((5-(([2,3′-bipyridin]-3-yloxy)methyl)-4,5-dihydroisoxazol-3-yl)methyl)-imidazo[1,2-a]pyridine-6-carboxamide]
- IC50: > 250 nM

Structure (SMILES): N#Cc1ccc(OCC2CC(CNC(=O)c3ccc4nccn4c3)=NO2)c(-c2ccc(F)nc2)n1 (single isomer, unassigned) [Example 10b, N-((5-(((6-cyano-6′-fluoro-[2,3′-bipyridin]-3-yl)oxy)methyl)-4,5-dihydroisoxazol-3-yl)methyl)imidazo[1,2-a]pyridine-6-carboxamide]
- Cell cytotoxicity assay (% Inhibition at 1 μM): 100%
- Cell cytotoxicity assay (% Inhibition at 10 μM): 100%

Structure (SMILES): O=C(NCC1=NOC(COc2cc(Cl)cnc2-c2ccc(F)nc2)C1)c1ccc2nccn2c1 (single isomer, unassigned) [Example 14a, N-((5-(((5-chloro-6′-fluoro-[2,3′-bipyridin]-3-yl)oxy)methyl)-4,5-dihydroisoxazol-3-yl)methyl)imidazo[1,2-a]pyridine-6-carboxamide]
- inhibition at 1 µM (Homo sapiens, MIA PaCa-2, 72 h): 93%
- inhibition at 10 µM (Homo sapiens, MIA PaCa-2, 72 h): 98%
- IC50: > 250 nM

Structure (SMILES): O=C(NCC1=NOC(COc2cc(F)cnc2-c2cccnc2)C1)c1ccc2nccn2c1 (racemic) [Example 15, N-((5-(((5-fluoro-[2,3′-bipyridin]-3-yl)oxy)methyl)-4,5-dihydroisoxazol-3-yl)methyl)imidazo[1,2-a]pyridine-6-carboxamide]
- inhibition at 1 µM (Homo sapiens, MIA PaCa-2, 72 h): 99%
- inhibition at 10 µM (Homo sapiens, MIA PaCa-2, 72 h): 99%
- IC50 (Homo sapiens, MIA PaCa-2, 72 h): 50 to 250 nM

Structure (SMILES): O=C(NCC1=NOC(COc2cccnc2-c2ccc(Cl)nc2)C1)c1ccc2nccn2c1 (single isomer, unassigned) [Example 8a, N-((5-(((6′-chloro-[2,3′-bipyridin]-3-yl)oxy)methyl)-4,5-dihydroisoxazol-3-yl)methyl)imidazo[1,2-a]pyridine-6-carboxamide]
- Cell cytotoxicity assay (% Inhibition at 1 μM): 10%
- Cell cytotoxicity assay (% Inhibition at 10 μM): 10%
- IC50: > 10000 nM
